{"source": "paper PMC9570594", "about": "“Development of Novel Pyridine-Thiazole Hybrid Molecules as Potential Anticancer Agents” (Molecules, 2022)", "key": {"[1]": {"test_system": "MCF-7 breast cancer cells", "test": "Mitochondrial membrane potential, JC-1 (flow cytometry)", "type": "cell-based, human", "conditions": "MCF-7, 5 µM, 24 h, control 5.1 ± 0.7%", "method": "A decrease in the mitochondrial membrane potential (MMP, ΔΨm) is one of the earliest changes observed at apoptosis. […] The MCF-7 cells had depolarized mitochondria, reaching 25.3 ± 1.5% and 24.7 ± 0.4% of the cell population treated with the compound 4 and 7, respectively. In the control, there were only 5.1 ± 0.7% cells with a decreased ΔΨm.\nDisruption of the MMP was assessed using the lipophilic cationic probe 5,5,6,6-tetrachloro-1,1,3,3-tetraethylbenzimidazolcarbocyanine iodide (JC-1 MitoScreen kit; BD Biosciences San Diego, CA, USA), as described previously. The entire assay was performed according to the manufacturer’s instructions provided with the purchased kit. […] Briefly, unfixed MCF-7 cells were washed and resuspended in the PBS supplemented with the JC-1 dye. Then, cells were incubated for 15 min at room temperature (RT) in the dark, washed, and resuspended in the PBS for the immediate BD FACSCanto II flow cytometry analysis."}, "MCF-7 cells": {"test_system": "MCF-7 cells", "test": "PARP-1 inhibition in vitro: MTT after Fluzoparib pretreatment", "type": "cell-based, human", "conditions": "Homo sapiens, MCF7; MCF-7, compound alone (no preincubation), 72 h MTT; read-out: IC50", "method": "Taking into account the above data, PARP1 inhibition in vitro was investigated using pretreatment of the MCF-7 cells with the Fluzoparib, a potent PARP1 inhibitor in the non-toxic concentrations of 5, 10, and 15 µM. It had no significant growth inhibitory effect in such doses, and a reduction of cell viability by only 10–12% was observed compared to control (non-treated) cells. […] The preincubation step was used to bind PARP1 molecules, which were the potential targets of the studied compounds and to test if it would affect the activity of 3 and 4. […] The preincubation of cells with the Fluzoparib decreased their sensitivity to the compound 3 treatment in a less pronounced manner, compared with the effect of the compound 4. […] Changes in structure of the started compound 3 may cause an enhancement of the ability of molecule 4 to inhibit the activity of PARP1.\nTo determine PARP inactivation, the MCF-7 cells were pretreated for 2 h in the non-toxic concentrations of 5, 10, 15 µM of the Fluzoparib (Med Chem Express, Monmouth Junction, NJ, USA), a potent PARP1 inhibitor used in the chemotherapy. Then, the medium was removed and increasing doses of the compounds 3 and 4 were added and cells were incubated for the next 72 h. The IC50 values of compounds were determined by the MTT assay, as described."}, "HCT-15 (Colon Cancer)": {"test_system": "HCT-15 (Colon Cancer)", "test": "NCI five-dose SRB assay", "type": "cell-based", "conditions": "Homo sapiens, 48 h"}, "[2]": {"test_system": "Non-Small Cell Lung Cancer cell lines (MG_MID)", "test": "NCI five-dose SRB assay", "type": "cell-based", "conditions": "Homo sapiens, 48 h"}, "[3]": {"test_system": "EKVX (Non-Small Cell Lung Cancer)", "test": "NCI five-dose SRB assay", "type": "cell-based", "conditions": "Homo sapiens, 48 h"}, "OVCAR-3 (Ovarian Cancer)": {"test_system": "OVCAR-3 (Ovarian Cancer)", "test": "NCI five-dose SRB assay", "type": "cell-based", "conditions": "Homo sapiens, 48 h"}, "[4]": {"test_system": "NCI-H460 (Non-Small Cell Lung Cancer)", "test": "NCI five-dose SRB assay", "type": "cell-based", "conditions": "Homo sapiens, 48 h"}, "HCT-116 (colon)": {"test_system": "HCT-116 (colon)", "test": "MTT assay of cell viability", "conditions": "Homo sapiens, HCT-116, 72 h, HCT-116; 72 h of incubation, M ± SD"}, "[5]": {"test_system": "panel of 60 cancer cell lines", "test": "NCI DTP one-dose primary anticancer assay (10^-5 M, SRB)"}, "OVCAR-8 (Ovarian Cancer)": {"test_system": "OVCAR-8 (Ovarian Cancer)", "test": "NCI five-dose SRB assay", "type": "cell-based", "conditions": "Homo sapiens, 48 h"}, "[6]": {"test_system": "murine macrophages of J774.2 line", "test": "MTT assay of cell viability", "conditions": "Mus musculus, J774.2, 72 h"}, "PC-3 (Prostate Cancer)": {"test_system": "PC-3 (Prostate Cancer)", "test": "NCI five-dose SRB assay", "type": "cell-based", "conditions": "Homo sapiens, 48 h"}, "U251 (CNS Cancer)": {"test_system": "U251 (CNS Cancer)", "test": "NCI five-dose SRB assay", "type": "cell-based", "conditions": "Homo sapiens, U-251, 48 h"}, "SF-268 (CNS Cancer)": {"test_system": "SF-268 (CNS Cancer)", "test": "NCI five-dose SRB assay", "type": "cell-based", "conditions": "Homo sapiens, 48 h"}, "T-47D (Breast Cancer)": {"test_system": "T-47D (Breast Cancer)", "test": "NCI five-dose SRB assay", "type": "cell-based", "conditions": "Homo sapiens, T47D, 48 h"}, "SK Mel-2 (Melanoma)": {"test_system": "SK Mel-2 (Melanoma)", "test": "NCI one-dose SRB assay", "conditions": "10 μM, 48 h"}, "RXF 393 (Renal Cancer)": {"test_system": "RXF 393 (Renal Cancer)", "test": "NCI five-dose SRB assay", "type": "cell-based", "conditions": "Homo sapiens, 48 h"}, "DU-145 (Prostate Cancer)": {"test_system": "DU-145 (Prostate Cancer)", "test": "NCI five-dose SRB assay", "type": "cell-based", "conditions": "Homo sapiens, 48 h"}, "HT29 (Colon Cancer)": {"test_system": "HT29 (Colon Cancer)", "test": "NCI one-dose SRB assay", "conditions": "10 μM, 48 h", "experimental": "Tested compounds were added to the culture at a single concentration (10^−5 M) and the cultures were incubated for 48 h. End point determinations were made with a protein binding dye, Sulphorhodamine B (SRB). […] The percentage growth was evaluated spectrophotometrically versus controls not treated with test agents."}, "HL-60(TB) (Leukemia)": {"test_system": "HL-60(TB) (Leukemia)", "test": "NCI five-dose SRB assay", "type": "cell-based", "conditions": "Homo sapiens, 48 h"}, "[7]": {"test_system": "HOP-92 (Non-Small Cell Lung Cancer)", "test": "NCI five-dose SRB assay", "type": "cell-based", "conditions": "Homo sapiens, 48 h"}, "[8]": {"test_system": "HCT-116 p53 (−/−) colon cancer cells", "test": "MTT assay of cell viability", "conditions": "Homo sapiens, HCT-116, 72 h", "text": "The cell lines used in our work were kindly provided by a Collection at the Institute of Molecular Biology and Genetics, National Academy of Sciences of Ukraine (Kyiv, Ukraine)."}, "MALME-3M (Melanoma)": {"test_system": "MALME-3M (Melanoma)", "test": "NCI five-dose SRB assay", "type": "cell-based", "conditions": "Homo sapiens, 48 h"}, "[9]": {"test_system": "MCF-7 breast cancer cells", "test": "Soft agar drug sensitivity assay", "type": "cell-based, human", "conditions": "MCF-7, 1 and 5 µM, day 12", "method": "It was proposed that testing of drugs in a 3-dimensional (3D) format, such as soft agar, is more similar to the in vivo cellular microenvironment and the results of such testing have a good correlation with in vivo conditions.\nFive hundred MCF-7 breast cancer cells in 0.5% sterile agar (Bacto-Agar, Difco Laboratories) were layered on a preformed 0.8% sterile agar layer using 24 well plate (CytoONE, STARLAB International GmbH, Hamburg, Germany). The cells in agar were treated with the compound 4 at concentrations of 1 and 5 µM/mL. Doxorubicin was used as a positive control. The 0.5% agar layer included DMEM medium containing 10% FBS, cells, and tested compounds. The 0.8% agar layer included DMEM medium. Colonies with a size of >50 µm were counted under the microscope and photographed after 12 days."}, "SK_MEL-5 (Melanoma)": {"test_system": "SK_MEL-5 (Melanoma)", "test": "NCI five-dose SRB assay", "type": "cell-based", "conditions": "Homo sapiens, SK-MEL-5, 48 h"}}, "data": [{"smiles": "CCOC(=O)c1ccc(NC(=O)CSC(CC(=O)c2sc(Nc3ccccn3)nc2C)c2ccccc2F)cc1", "note": "(centres unmarked) [Compound 4, Ethyl 4-[[2-[1-(2-Fluorophenyl)-3-[4-methyl-2-(2-pyridylamino)thiazol-5-yl]-3-oxopropyl]sulfanylacetyl]amino]benzoate]", "values": [{"measurement": "cells with depolarized mitochondria (decreased ΔΨm)", "setting": "[1]", "result": "25.3 ± 1.5", "unit": "%"}, {"measurement": "IC50", "setting": "MCF-7 cells", "result": 3.53, "unit": "µM"}, {"measurement": "GI50", "setting": "HCT-15 (Colon Cancer)", "result": 25.8, "unit": "µM"}, {"measurement": "GI50", "setting": "[2]", "result": 27.6, "unit": "µM"}, {"measurement": "GI50", "setting": "[3]", "result": 19, "unit": "µM"}, {"measurement": "GI50", "setting": "OVCAR-3 (Ovarian Cancer)", "result": 31.7, "unit": "µM"}, {"measurement": "GI50", "setting": "[4]", "result": 31.2, "unit": "µM"}, {"measurement": "IC50", "setting": "HCT-116 (colon)", "result": "6.11 ± 0.24", "unit": "µM"}, {"measurement": "Mean Growth, %", "setting": "[5]; 10 μM, 48 h, 60 cell lines", "result": "−2.78", "unit": "%"}, {"measurement": "Range of Growth, %", "setting": "[5]; 10 μM, 48 h, 60 cell lines", "result": "−76.78–41.12%"}, {"measurement": "Positive Cytostatic Effect", "setting": "[5]; 10 μM, number of cell lines with percent growth from 0 to 50 / total number of cell lines", "result": "35/60"}, {"measurement": "Positive Cytotoxic Effect", "setting": "[5]; 10 μM, number of cell lines with percent growth of <0 / total number of cell lines", "result": "25/60"}, {"measurement": "inhibition at 10 µM", "setting": "[5]; Homo sapiens, 48 h, read-out: growth inhibition of all 60 tested cancer cell lines", "result": "> 50", "unit": "%"}, {"measurement": "GI50", "setting": "OVCAR-8 (Ovarian Cancer)", "result": 53.6, "unit": "µM"}, {"measurement": "IC50", "setting": "[6]", "result": "> 50", "unit": "µM"}, {"measurement": "GI50", "setting": "PC-3 (Prostate Cancer)", "result": 23.8, "unit": "µM"}, {"measurement": "GI50", "setting": "U251 (CNS Cancer)", "result": 47.8, "unit": "µM"}, {"measurement": "GI50", "setting": "SF-268 (CNS Cancer)", "result": 43.1, "unit": "µM"}, {"measurement": "GI50", "setting": "T-47D (Breast Cancer)", "result": 18, "unit": "µM"}, {"measurement": "Growth %", "setting": "SK Mel-2 (Melanoma)", "result": "−31.22", "unit": "%"}, {"measurement": "GI50", "setting": "RXF 393 (Renal Cancer)", "result": 2.59, "unit": "µM"}, {"measurement": "GI50", "setting": "DU-145 (Prostate Cancer)", "result": 67.2, "unit": "µM"}, {"measurement": "Growth %", "setting": "HT29 (Colon Cancer)", "result": "−28.32", "unit": "%"}, {"measurement": "GI50", "setting": "HL-60(TB) (Leukemia)", "result": 21.4, "unit": "µM"}, {"measurement": "GI50", "setting": "[7]", "result": 12.5, "unit": "µM"}, {"measurement": "IC50", "setting": "[8]", "result": "3.43 ± 0.9", "unit": "µM"}, {"measurement": "GI50", "setting": "MALME-3M (Melanoma)", "result": 25.4, "unit": "µM"}, {"measurement": "size and number of colonies in soft agar", "setting": "[9]", "result": "reduces the size and number of colonies"}, {"measurement": "GI50", "setting": "SK_MEL-5 (Melanoma)", "result": 18.6, "unit": "µM"}]}]}
